Assay [1] concerns Amaranthus retroflexus (AMARE). As to the kind of experiment: Test 1A glasshouse assay, pre-emergence herbicidal activity. The assay is classed as in vivo. The following applies: 312 h, 250 g/ha, 13 days after application, read-out: Pre-Emergence Herbicidal Activity (% Phytotoxicity) AMARE.
For assay [2], the system named is Setaria faberi (SETFA). The description is as above. The assay is classed as in vivo. The following applies: 312 h, 250 g/ha, 13 days after application, read-out: Pre-Emergence Herbicidal Activity (% Phytotoxicity) SET FA.
Assay [3] deals with Echinochloa crus-galli (ECHCG). The assay is described as above. The assay is classed as in vivo. The following applies: 312 h, 13 days after application, read-out: Pre-Emergence Herbicidal Activity (% Phytotoxicity) ECHCG. As for the experimental part: (§1) Seeds of a variety of test species are sown in standard soil (usually sandy soil) in pots. After cultivation for one day (pre-emergence) or after 8 days cultivation (post-emergence) under controlled conditions in a glasshouse (at 24/16° C., day/night; 14 hours light; 65% humidity), the plants are sprayed with an aqueous spray solution derived from the formulation of the technical active ingredient (compound) in acetone/water (50:50) solution containing 0.5% Tween 20 (polyoxyethylene sorbitan monolaurate, CAS RN 9005-64-5). The test plants are then grown under controlled conditions in a glasshouse (at 24/16° C., day/night; 14 hours light; 65% humidity) and watered twice daily. 13 days after application of the test compounds, for pre- and post-emergence, the test is evaluated visually for percentage phytotoxicity to each plant (where 100%=total damage to plant; 0%=no damage to plant).
Alopecurus myosuroides (ALOMY), Setaria faberi (SETFA), Echinochloa crus-galli (ECHCG), Amaranthus retroflexus (AMARE), and Abutilon theophasti Medik. (ABUTH, common English name “velvetleaf”). Of these, Alopecurus myosuroides (ALOMY), Setaria faberi (SETFA), and Echinochloa crus-galli (ECHCG) are grassy monocotyledonous weeds. […]

A further assay relates to POAAN. The assay can be described thus: Biological Example 3 (Test 2 glasshouse assay), post-emergence herbicidal activity. It is filed as in vivo, Poa annua. On the procedure: (§2) Seeds of a variety of monocotyledonous and dicotyledonous test plants are sown in standard soil in pots. The plants are cultivated for one day (for pre-emergence) or for about 12 days (range=10-13 days) (for post-emergence) under controlled conditions in a glasshouse (warm climate species at 24/18° C., cool climate species at 20/16° C., both at day/night; 16 hours light; 65% humidity). An “instant formulation”, known as the “IF50”, containing 50 g/litre (i.e. 5% w/v) of the “technical” (i.e. unformulated) active ingredient is prepared by dissolving the active ingredient in a mixture of organic solvents and emulsifier, details of which are provided in the Table below. This IF50 is then mixed with a small, variable amount of acetone to aid dissolution, before addition of a 0.2% v/v aqueous solution of the adjuvant X-77 (which is a mixture of alkyl aryl polyoxyethylene glycols and free fatty acids in isopropanol, CAS Registry number 11097-66-8), as the aqueous diluent, to form an aqueous spray solution which contains a predetermined concentration of the active ingredient (which varies depending on the application rate of the active ingredient to the plants) and 0.2% v/v of the adjuvant X-77. This aqueous spray solution is then sprayed onto the plants, after one day's cultivation (for pre-emergence) or after about 12 days' cultivation (for post-emergence). The test plants are then grown on, in a glasshouse (greenhouse) under controlled conditions (at either 24/18° C. or 20/16° C. (day/night) as mentioned above; 16 hours light; 65% humidity) and are watered twice daily. Either 15 days after application of the test compound (15 DAA) (for post-emergence), or 20 days after application of the test compound (20 DAA) (for pre-emergence), the test plants are evaluated visually, and an assessed percentage phytotoxicity score is given for each compound application on each plant species (where 100%=total damage to plant; 0%=no damage to plant).

In assay [4] the test system is Amaranthus retroflexus (AMARE). The assay can be described thus: Test 1A glasshouse assay, post-emergence herbicidal activity. The following applies: 312 h, 13 days after application, read-out: Post-Emergence Herbicidal Activity (% Phytotoxicity) AMARE. The assay is classed as in vivo. On the procedure:
as §1
(§3) Alopecurus myosuroides (ALOMY), Setaria faberi (SETFA), Echinochloa crus-galli (ECHCG), Amaranthus retroflexus (AMARE), and Abutilon theophasti Medik. (ABUTH, common English name “velvetleaf”). Of these, Alopecurus myosuroides (ALOMY), Setaria faberi (SETFA), and Echinochloa crus-galli (ECHCG) are grassy monocotyledonous weeds.

Assay [5] has as its system Abutilon theophasti Medik. (ABUTH). The description is as above. The assay is classed as in vivo. The following applies: 312 h, 13 days after application, read-out: Post-Emergence Herbicidal Activity (% Phytotoxicity) ABUTH. As for the experimental part:
as §1, §3

The test system of assay [6] is Setaria faberi (SETFA). Described as above. It is filed as in vivo. The following applies: 312 h, 13 days after application, read-out: Post-Emergence Herbicidal Activity (% Phytotoxicity) SET FA. On the procedure: as §1, §3
In the next assay the test system is ZEAMX. The assay can be described thus: Biological Example 3 (Test 2 glasshouse assay), post-emergence herbicidal activity. It is filed as in vivo. On the procedure: as §2
Assay [7] relates to Alopecurus myosuroides (ALOMY). As to the kind of experiment: Test 1A glasshouse assay, pre-emergence herbicidal activity. It is filed as in vivo. The following applies: 312 h, 13 days after application, read-out: Pre-Emergence Herbicidal Activity (% Phytotoxicity) ALOMY. As for the experimental part: as §1, §3
(§4) Lolium perenne (LOLPE), Triticum aestivum (TRZAW, winter wheat), Alopecurus myosuroides (ALOMY), Echinochloa crus-galli (ECHCG), and Avena fatua (AVEFA). All these are grassy monocotyledonous weeds and/or (for wheat) grassy crops.

Another assay deals with Avena fatua (AVEFA). Described as above. The following applies: 312 h, 13 days after application, read-out: Pre-Emergence Herbicidal Activity (% Phytotoxicity) AVEFA. The assay is classed as in vivo. On the procedure: as §1, §4
The next assay has as its system Lolium perenne (LOLPE). Described as above. The assay is classed as in vivo. The following applies: 312 h, 13 days after application, read-out: Pre-Emergence Herbicidal Activity (% Phytotoxicity) LOLPE. On the procedure: as §1, §4
For assay [8], the system named is Triticum aestivum (TRZAW, winter wheat). Described as above. The following applies: 312 h, 13 days after application, read-out: Pre-Emergence Herbicidal Activity (% Phytotoxicity) TRZAW. It is filed as in vivo. As for the experimental part: as §1, §4

The values below come from patent US20160219881A1, “HERBICIDALLY ACTIVE 2-HALOGEN-4-ALKYNYL-PHENYL-PYRAZOLIDINE-DIONE OR PYRROLIDINE-DIONE DERIVATIVES” (SYNGENTA LIMITED, priority 2013, published 2016).

In the case of `CC#Cc1cc(C)c(C2C(=O)N(C)N(C)C2=O)c(C)c1` [Compound A1], the inhibition at 250 g/ha in [1] was found to be 0%; in the assay with Setaria faberi (SETFA) [2], 30%; in [3] it was 30%; in assay [4], 0%; in assay [5], 10%; in the assay with Setaria faberi (SETFA) [6], 40%. In addition, the inhibition at 250 g/ha in [7] came to 0%. The “Post-Emergence Herbicidal Activity (Percentage Phytotoxicity) POAAN” value is recorded as 50% with POAAN (30 g/ha (rate by row order)) and 80% in the assay with POAAN (125 g/ha (rate by row order)). In addition, the figures for the “Post-Emergence Herbicidal Activity (Percentage Phytotoxicity) ZEAMX” value in the assay with ZEAMX (30 g/ha (rate by row order)) and in the assay on ZEAMX (125 g/ha (rate by row order)) were 90% and 100%, respectively.
As for `CC#Cc1cc(C)c(C2C(=O)N3CCCCCN3C2=O)c(C)c1` [Compound A23, 2-(2,6-dimethyl-4-prop-1-ynyl-phenyl)-6,7,8,9-tetrahydro-5H-pyrazolo[1,2-a]diazepine-1,3-dione], the inhibition at 250 g/ha in [1] turned out to be 80%; with Setaria faberi (SETFA) [2], 50%; in assay [3] it was 90%; in [4], 30%; in assay [5], 60%; in the assay on Setaria faberi (SETFA) [6], 80%. In addition, in [7], the inhibition at 250 g/ha was found to be 90%. In addition, the “Post-Emergence Herbicidal Activity (Percentage Phytotoxicity) POAAN” value is on record as 10% with POAAN (30 g/ha (rate by row order)) and 70% with POAAN (125 g/ha (rate by row order)). The “Post-Emergence Herbicidal Activity (Percentage Phytotoxicity) ZEAMX” value amounted to 0% in the assay on ZEAMX (30 g/ha (rate by row order)) and 30% in the assay with ZEAMX (125 g/ha (rate by row order)).
Take `CC#Cc1cc(C)c(C2C(=O)C(Cc3ccccn3)N(C)C2=O)c(C)c1` (stereo not shown) [Compound A50, 3-(2,6-dimethyl-4-prop-1-ynyl-phenyl)-1-methyl-5-(2-pyridylmethyl)pyrrolidine-2,4-dione]: the inhibition at 62.5 g/ha in assay [3] (62.5 g/ha) was 70%; in the assay on Avena fatua (AVEFA) (62.5 g/ha), 60%; with Lolium perenne (LOLPE) (62.5 g/ha) it was 70%; in assay [8] (62.5 g/ha), 70%; in assay [7] (62.5 g/ha), 70%. The inhibition at 250 g/ha in assay [3] is 90%; in the assay on Avena fatua (AVEFA) (250 g/ha), 70%; with Lolium perenne (LOLPE) (250 g/ha), 100%; in [8] (250 g/ha) it was 90%; in assay [7], 90%.
Turning to `CC#Cc1cc(C)c(-c2c(OC(=O)C(C)(C)C)n(C)n(C)c2=O)c(C)c1` [Compound P1], the inhibition at 250 g/ha was found to be 10% in assay [1]; 100% in the assay on Setaria faberi (SETFA) [2]; 100% in [3]; 20% in assay [4]; 70% in [5]; 90% with Setaria faberi (SETFA) [6]. Moreover, the inhibition at 250 g/ha in assay [7] was 100%. In addition, the “Post-Emergence Herbicidal Activity (Percentage Phytotoxicity) POAAN” value with POAAN (8 g/ha (rate by row order)) is 0%; in the assay on POAAN (30 g/ha (rate by row order)), 0%; with POAAN (125 g/ha (rate by row order)) it was 70%. Besides, the values for the inhibition at 30 g/ha (in assay [4]; in assay [5]; in the assay on Setaria faberi (SETFA) [6]) were 0%, 30% and 70%, respectively. In addition, the entries for the “Post-Emergence Herbicidal Activity (Percentage Phytotoxicity) ZEAMX” value in the assay on ZEAMX (8 g/ha (rate by row order)), in the assay on ZEAMX (30 g/ha (rate by row order)) and in the assay with ZEAMX (125 g/ha (rate by row order)) were 60%, 70% and 100%, respectively.
As for `CC#Cc1cc(C)c(-c2c(OC(=O)C(C)(C)C)n3n(c2=O)CCOCC3)c(C)c1` [Compound P4], the inhibition at 250 g/ha in [1] was determined as 100%; in the assay on Setaria faberi (SETFA) [2], 100%; in assay [3], 100%; in assay [4], 10%; in assay [5], 70%; with Setaria faberi (SETFA) [6], 100%. The inhibition at 250 g/ha in [7] was 100%. For the same compound, the figures for the “Post-Emergence Herbicidal Activity (Percentage Phytotoxicity) POAAN” value with POAAN (8 g/ha (rate by row order)), in the assay with POAAN (30 g/ha (rate by row order)) and in the assay with POAAN (125 g/ha (rate by row order)) were 50%, 70% and 90%, respectively. Moreover, the values for the inhibition at 30 g/ha (in assay [4]; in [5]; in the assay on Setaria faberi (SETFA) [6]) were 0%, 70% and 70%, respectively. Besides, the “Post-Emergence Herbicidal Activity (Percentage Phytotoxicity) ZEAMX” value in the assay with ZEAMX (8 g/ha (rate by row order)) is 30%; in the assay on ZEAMX (30 g/ha (rate by row order)) it was 90%; in the assay with ZEAMX (125 g/ha (rate by row order)), 100%.
